Format in all cases: cell-based
Assay [1] relates to AGS (G12D). As to the kind of experiment: Cell proliferation assay (CellTiter-Glo, 72 hours), AGS. To be noted: 72 h, 384-well, CellTiter-Glo 2.0. As to the method:
(§1) Two thousand KRAS mutant cells per well were seeded in 384-well white plate and then treated with indicated compounds for 72 hours at 37° C. and 5% CO2. Cell proliferation was measured using CellTiter-Glo 2.0 luciferase-based ATP detection assay (Promega, Madison, WI) following the manufacturer's protocol. IC50 values were determined using Prism software (GraphPad Software, San Diego, CA).
In general terms: Cellular ATP, detected with luciferase, serves as a proxy for viable cell number.

Assay [2] deals with GP2D (KRAS G12D). As to the kind of experiment: Cell proliferation assay (CellTiter-Glo, 72 hours), GP2D. As to conditions: GP2d, 72 h, 384-well, CellTiter-Glo 2.0. As to the method: as §1
For assay [3], the system named is SW620 (KRAS G12V). As to the kind of experiment: Cell proliferation assay (CellTiter-Glo, 72 hours), SW620. As to conditions: Homo sapiens, SW-620, 72 h, 384-well, CellTiter-Glo 2.0. As to the method:
as §1

For orientation: IC50 means the midpoint of a concentration-inhibition curve. Lower therefore signals inhibition by little substance.

Where only a bound is given, the exact number is not on record here.

Take `C#Cc1c(F)ccc2cc(O)cc(-c3nc4c5c(nc(OC[C@@]67CCCN6C[C@H](F)C7)nc5c3F)N(C)[C@@H](CO)CO4)c12` [Example 27, 5-ethynyl-6-fluoro-4-[(9S)-4-fluoro-2-{[(2R,7aS)-2-fluorotetrahydro-1H-pyrrolizin-7a(5H)-yl]methoxy}-9-(hydroxymethyl)-10-methyl-9,10-dihydro-8H-7-oxa-1,3,6,10-tetraazacyclohepta[1,2,3-de]naphthalen-5-yl]naphthalen-2-ol]: the IC50 in assay [1] and in assay [2] was more than 3000 nM throughout.
`CCc1c(F)ccc2cc(O)cc(-c3nc4c5c(nc(OC[C@@]67CCCN6C[C@H](F)C7)nc5c3F)N(C)[C@@H](CO)CO4)c12` [Example 28, 5-ethyl-6-fluoro-4-[(9S)-4-fluoro-2-{[(2R,7aS)-2-fluorotetrahydro-1H-pyrrolizin-7a(5H)-yl]methoxy}-9-(hydroxymethyl)-10-methyl-9,10-dihydro-8H-7-oxa-1,3,6,10-tetraazacyclohepta[1,2,3-de]naphthalen-5-yl]naphthalen-2-ol]: the IC50 in assay [1], in assay [2] and in assay [3] was more than 3000 nM in each case.
With `C#Cc1c(F)ccc2cc(O)cc(-c3nc4c5c(nc(OC[C@@]67CCCN6C[C@H](F)C7)nc5c3F)N3C[C@H](O)CC[C@H]3CO4)c12` [Example 29, (8aS,11R)-5-(8-ethynyl-7-fluoro-3-hydroxynaphthalen-1-yl)-4-fluoro-2-{[(2R,7aS)-2-fluorotetrahydro-1H-pyrrolizin-7a(5H)-yl]methoxy}-8,8a,9,10,11,12-hexahydro-7-oxa-1,3,6,12a-tetraazabenzo[4,5]cyclohepta[1,2,3-de]naphthalen-11-ol], the IC50 in assay [1] is 760 nM; in assay [2], 364 nM; in assay [3], more than 3000 nM.
Turning to `C#Cc1c(F)ccc2cc(O)cc(-c3nc4c5c(nc(OC[C@@]67CCCN6C[C@H](F)C7)nc5c3F)N3C[C@](C)(O)CC[C@H]3CO4)c12` [Example 30, (8aS,11R)-5-(8-ethynyl-7-fluoro-3-hydroxynaphthalen-1-yl)-4-fluoro-2-{[(2R,7aS)-2-fluorotetrahydro-1H-pyrrolizin-7a(5H)-yl]methoxy}-11-methyl-8,8a,9,10,11,12-hexahydro-7-oxa-1,3,6,12a-tetraazabenzo[4,5]cyclohepta[1,2,3-de]naphthalen-11-ol], the IC50 in assay [1] is 97.3 nM; in assay [2] it was 50.5 nM; in assay [3], 139 nM.
Consider `C#Cc1c(F)ccc2cc(O)cc(-c3nc4c5c(nc(OC[C@@]67CCCN6C[C@H](F)C7)nc5c3F)N[C@@H](C3CC3)CO4)c12` [Example 31, 4-[(9S)-9-cyclopropyl-4-fluoro-2-{[(2R,7aS)-2-fluorotetrahydro-1H-pyrrolizin-7a(5H)-yl]methoxy}-9,10-dihydro-8H-7-oxa-1,3,6,10-tetraazacyclohepta[1,2,3-de]naphthalen-5-yl]-5-ethynyl-6-fluoronaphthalen-2-ol], for which the IC50 is more than 3000 nM in assay [1], 1880 nM in assay [2] and more than 3000 nM in assay [3].
On to `C#Cc1c(F)ccc2cc(O)cc(-c3nc4c5c(nc(OC[C@@]67CCCN6C[C@H](F)C7)nc5c3F)N(C)[C@@H](C3CC3)CO4)c12` [Example 32, 4-[(9S)-9-cyclopropyl-4-fluoro-2-{[(2R,7aS)-2-fluorotetrahydro-1H-pyrrolizin-7a(5H)-yl]methoxy}-10-methyl-9,10-dihydro-8H-7-oxa-1,3,6,10-tetraazacyclohepta[1,2,3-de]naphthalen-5-yl]-5-ethynyl-6-fluoronaphthalen-2-ol], for which the values for the IC50 in assay [1], in assay [2] and in assay [3] were 623 nM, 293 nM and 693 nM, respectively.
On to `CCc1c(F)ccc2cc(O)cc(-c3nc4c5c(nc(OC[C@@]67CCCN6C[C@H](F)C7)nc5c3F)N[C@@H](C3CC3)CO4)c12` [Example 33, 4-[(9S)-9-cyclopropyl-4-fluoro-2-{[(2R,7aS)-2-fluorotetrahydro-1H-pyrrolizin-7a(5H)-yl]methoxy}-9,10-dihydro-8H-7-oxa-1,3,6,10-tetraazacyclohepta[1,2,3-de]naphthalen-5-yl]-5-ethyl-6-fluoronaphthalen-2-ol], for which the IC50 in assay [1] is 2840 nM; in assay [2], 962 nM; in assay [3], 1530 nM.
For `C#Cc1c(F)ccc2cc(O)cc(-c3nc4c5c(nc(OC[C@@]67CCCN6C[C@H](F)C7)nc5c3F)N[C@@H](C3CCC3)CO4)c12` [Example 35, 4-[(9S)-9-cyclobutyl-4-fluoro-2-{[(2R,7aS)-2-fluorotetrahydro-1H-pyrrolizin-7a(5H)-yl]methoxy}-9,10-dihydro-8H-7-oxa-1,3,6,10-tetraazacyclohepta[1,2,3-de]naphthalen-5-yl]-5-ethynyl-6-fluoronaphthalen-2-ol], the IC50 in assay [1], in assay [2] and in assay [3] was more than 3000 nM throughout.
As to `CCc1c(F)ccc2cc(O)cc(-c3nc4c5c(nc(OC[C@@]67CCCN6C/C(=C\F)C7)nc5c3F)N3CCCC[C@H]3CO4)c12` [Example 41, 5-ethyl-6-fluoro-4-[(8aS)-4-fluoro-2-{[(2Z,7aS)-2-(fluoromethylidene)tetrahydro-1H-pyrrolizin-7a(5H)-yl]methoxy}-8,8a,9,10,11,12-hexahydro-7-oxa-1,3,6,12a-tetraazabenzo[4,5]cyclohepta[1,2,3-de]naphthalen-5-yl]naphthalen-2-ol], the IC50 in assay [1] was 43.1 nM; in assay [2], 20.7 nM; in assay [3] it was 42 nM.
Turning to `C#Cc1c(F)ccc2cc(O)cc(-c3nc4c5c(nc(OC[C@@]67CCCN6C[C@H](F)C7)nc5c3F)N[C@@H](C(C)C)CO4)c12` [Example 47, 5-ethynyl-6-fluoro-4-[(9S)-4-fluoro-2-{[(2R,7aS)-2-fluorotetrahydro-1H-pyrrolizin-7a(5H)-yl]methoxy}-9-(propan-2-yl)-9,10-dihydro-8H-7-oxa-1,3,6,10-tetraazacyclohepta[1,2,3-de]naphthalen-5-yl]naphthalen-2-ol], the half-inhibitory concentration (IC50) was 789 nM in assay [1], not below 6000 nM in assay [2] and more than 3000 nM in assay [3].
Regarding `C#Cc1c(F)ccc2cc(O)cc(-c3nc4c5c(nc(OC[C@@]67CCCN6C[C@H](F)C7)nc5c3F)N[C@@H](CCOC)CO4)c12` [Example 48, 5-ethynyl-6-fluoro-4-[(9S)-4-fluoro-2-{[(2R,7aS)-2-fluorotetrahydro-1H-pyrrolizin-7a(5H)-yl]methoxy}-9-(2-methoxyethyl)-9,10-dihydro-8H-7-oxa-1,3,6,10-tetraazacyclohepta[1,2,3-de]naphthalen-5-yl]naphthalen-2-ol], the IC50 in assay [1] is more than 3000 nM; in assay [2], 2200 nM; in assay [3], more than 3000 nM.
As for `C#Cc1c(F)ccc2cc(O)cc(-c3nc4c5c(nc(OC[C@@]67CCCN6C[C@H](F)C7)nc5c3F)N(C)[C@@H](C(C)C)CO4)c12` [Example 51, 5-ethynyl-6-fluoro-4-[(9S)-4-fluoro-2-{[(2R,7aS)-2-fluorotetrahydro-1H-pyrrolizin-7a(5H)-yl]methoxy}-10-methyl-9-(propan-2-yl)-9,10-dihydro-8H-7-oxa-1,3,6,10-tetraazacyclohepta[1,2,3-de]naphthalen-5-yl]naphthalen-2-ol], the IC50 in assay [1] was more than 3000 nM; in assay [2], 216 nM; in assay [3] it was 2270 nM.
For the molecule `C#Cc1c(F)ccc2cc(O)cc(-c3nc4c5c(nc(OC[C@@]67CCCN6C[C@H](F)C7)nc5c3F)N3CCC[C@@](C)(O)[C@H]3CO4)c12` [Example 53, (8aR,9R)-5-(8-ethynyl-7-fluoro-3-hydroxynaphthalen-1-yl)-4-fluoro-2-{[(2R,7aS)-2-fluorotetrahydro-1H-pyrrolizin-7a(5H)-yl]methoxy}-9-methyl-8,8a,9,10,11,12-hexahydro-7-oxa-1,3,6,12a-tetraazabenzo[4,5]cyclohepta[1,2,3-de]naphthalen-9-ol], the IC50 in assay [1] worked out at 113 nM; in assay [2], 34.5 nM.
For `C#Cc1c(F)ccc2cc(O)cc(-c3nc4c5c(nc(OC[C@@]67CCCN6C[C@H](F)C7)nc5c3F)N(C(C)C)[C@@H](C)CO4)c12` [Example 56, 5-ethynyl-6-fluoro-4-[(9S)-4-fluoro-2-{1[(2R,7aS)-2-fluorotetrahydro-1H-pyrrolizin-7a(5H)-yl]methoxy}-9-methyl-10-(propan-2-yl)-9,10-dihydro-8H-7-oxa-1,3,6,10-tetraazacyclohepta[1,2,3-de]naphthalen-5-yl]naphthalen-2-ol], the figures for the IC50 in assay [1], in assay [2] and in assay [3] were 5.14 nM, 2.45 nM and 3.51 nM, respectively.
Take `C#Cc1c(F)ccc2cc(O)cc(-c3nc4c5c(nc(OC[C@@]67CCCN6C[C@H](F)C7)nc5c3F)N3CC(F)(F)CC[C@H]3CO4)c12` [Example 98, 5-ethynyl-6-fluoro-4-[(8aS)-4,11,11-trifluoro-2-{[(2R,7aS)-2-fluorotetrahydro-1H-pyrrolizin-7a(5H)-yl]methoxy}-8,8a,9,10,11,12-hexahydro-7-oxa-1,3,6,12a-tetraazabenzo[4,5]cyclohepta[1,2,3-de]naphthalen-5-yl]naphthalen-2-ol]: the IC50 in assay [2] came to 114 nM.
On to `C#Cc1c(F)ccc2cc(O)cc(-c3nc4c5c(nc(OC[C@@]67CCCN6C[C@H](F)C7)nc5c3F)N3CCC[C@](C)(O)[C@@H]3CO4)c12` [Example 113, (8aS,9S)-5-(8-ethynyl-7-fluoro-3-hydroxynaphthalen-1-yl)-4-fluoro-2-{[(2R,7aS)-2-fluorotetrahydro-1H-pyrrolizin-7a(5H)-yl]methoxy}-9-methyl-8,8a,9,10,11,12-hexahydro-7-oxa-1,3,6,12a-tetraazabenzo[4,5]cyclohepta[1,2,3-de]naphthalen-9-ol], for which the IC50 in assay [1] and in assay [2] was more than 3000 nM in each case.

The values above are taken from patent US20260008787A1, “FUSED RING KRAS INHIBITORS FOR TREATING DISEASE” (BLOSSOMHILL THERAPEUTICS, INC., priority 2022, published 2026).
